From patent publication US9447083B2, “N-acylhydrazone derivatives for selective T cell inhibitor and anti-lymphoid malignancy drug” (CHONG KUN DANG PHARMACEUTICAL CORP., priority 2012, dated 2016)

Experiments:
[1] = system: Experimental Autoimmune Encephalomyelitis (EAE); assay: Experimental Autoimmune Encephalomyelitis (EAE) model of multiple sclerosis; assay type: in vivo, mouse
Procedure: At the first day of induction, myelin oligodendrocyte glycoprotein35-55 (MOG35-55, Peptron) (200 ug), mycobacterium tuberculosis (Difco, Cat No. 231141) (500 μg) and complete Freund's adjuvant (Sigma Aldrich, Cat No. F5506) were mixed with each other and immersed for 5 minutes. 0.1 mL of the immersed peptide was injected subcutaneously into both the flanks of each of C57BL/6 mice (9 week old, female, 18±2 g), followed by that […] pertussis toxin (Sigma Aldrich, Cat No. P2980) (200 ng) was injected by intravenously. At 2 days, the same amount of pertussis toxin was administered intravenously. Whether the immersion leaked from the injected portion of the mice was checked, and whether EAE was induced was also examined by visual observation from 7 days.
Compound 229 and Fingolimod that is currently clinically used for the treatment of multiple sclerosis were completely dissolved in a Cremophor EL-ethanol mixture (1:1, v/v) in an amount corresponding to 7.5% (v/v) of the administration volume, and the compound solution was diluted in PBS. The two groups of the mice were administered orally with 200 μL of the diluted solution of compound 229 at each doses of 25 and 50 mg/kg separately, and the third group of the mice was administered orally with 200 μL of the diluted solution of fingolimode at a dose of 1 mg/kg on a daily basis from 17 days to 37 days (for total 21 times) after starting of the experiment. In a vehicle control group, 200 μL of a Cremophor EL-ethanol-PBS mixture (3.75:3.75:92.5, v/v/v) was administered to each mouse in the same manner as the treated group. The index of EAE was recorded daily based on visual observation using a severity index system (6-point (0 to 5) scale) from 7 days of the experiment. The symptoms of multiple sclerosis were evaluated based on the following criteria:
2: limp tail and hind limb weakness;
4: hind limb paralysis and forelimb weakness; and […]

[2] = system: Jurkat T cells; assay: Pro-apoptotic activity on Jurkat T cells (FITC-Annexin V / 7-AAD flow cytometry); assay type: cell-based; details: Homo sapiens, 72 hours, cells stained with FITC-Annexin V and 7-AAD among total cells, read-out: Cell Apoptosis Effect to Jurkat T Cell (% in 5 μM)
Outline: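 Jurkat cells at 1.5×10^5 cells/mL in RPMI/10% FBS treated with compounds at […] or 5 μM final for 72 h at 37° C, vehicle containing 1% DMSO. Stained with FITC-Annexin V and 7-AAD for 15 min at room temperature in pH 7.4 Hepes binding buffer. Apoptosis = % double-stained cells by flow cytometry.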

[3] = system: alloantigen-specific T cells; assay: Inhibitory effect on alloantigen-specific T cells in vivo (donor T cells in spleen of irradiated BDF1 mice); design: species or system mouse; details: for number of alloantigen-specific T cells in the spleen: compared to vehicle, concentration-dependent
Procedure: Lymph nodes and spleens were aseptically collected from normal C57BL/6-Ly5.1 mice (8-12 week old, female, 20±2 g), and T cells were isolated in the same manner as described in Experimental Example 2, and were then re-suspended in PBS at a concentration of 1×10^8 cells/mL. Normal BDF1 mice (10-12 week old, female, 20-23 g) were irradiated with 950 rad of γ radiation, and then 100 μL of the above-prepared T cells of C57BL/6-Ly5.1 mice were injected into the tail vein of the BDF1 mice. Compound 229 was completely dissolved in a Cremophor EL (Sigma)/ethanol mixture (1:1, v/v) in an amount corresponding to 15% (v/v) of the administration volume for intraperitoneal administration and in an amount corresponding to 7.5% (v/v) for oral administration, and the compound solution was diluted in PBS. The dilution was administered intraperitoneally (200 μL/mouse) or orally (500 μL/mouse) every day for 5 days from the day of the cell injection. A vehicle control group was administered with a Cremophor EL-ethanol-PBS mixture in the same ratio and volume as those of the test group. At 6 days after the cell injection, the mice were sacrificed, the spleens were collected from the mice, and erythrocyte-free spleen cells were made in the same manner as described in Experimental Example 2. The spleen cells were stained with trypan blue, and the number of viable cells per organ of each animal was counted. Then, the spleen cells were put into 5 mL FACS tubes and washed with 1 mL of FACS buffer. The cells were re-suspended in 0.1 mL of FACS buffer, and then treated with […] of mouse immunoglobulin G in order to prevent the non-specific binding of antibody, followed by incubation at 4° C. for 15 minutes. […] The stained cells were washed twice with 1 mL of FACS buffer, re-suspended in 0.3 mL of FACS buffer and analyzed by a flow cytometer. The number of donor T cells in the spleen was determined by measuring the ratio (%) of a donor T cell fraction (Ly5.1^+ cells) relative to viable cells per spleen.

Compound: Cc1cc(C)c(OCC(=O)N/N=C/c2ccc3cc[nH]c3c2)c(C2CCOC2)c1 (centres unmarked) [Compound 229, (E)-N′-((1H-indol-6-yl)methylene)-2-(2,4-dimethyl-6-(tetrahydrofuran-3-yl)phenoxy)acetohydrazide]
- severity index (EAE, 0 to 5 scale) ([1]; 25 mg/kg orally daily from 17 to 37 days, at 17 days (start of administration)): 3±1
- severity index (EAE, 0 to 5 scale) ([1]; 25 mg/kg orally daily from 17 to 37 days, at 39 days, vehicle 2.5±0.75): 1.25±0.75
- severity index (EAE, 0 to 5 scale) ([1]; 25 mg/kg orally daily from 17 to 37 days, at 55 days): 1.17±0.75
- severity index (EAE, 0 to 5 scale) ([1]; 25 mg/kg orally daily from 17 to 37 days, at 101 days, vehicle 2.33±0.25): 1.83±0.5
- severity index (EAE, 0 to 5 scale) ([1]; 50 mg/kg orally daily from 17 to 37 days, at 17 days (start of administration)): 3±0.75
- severity index (EAE, 0 to 5 scale) ([1]; 50 mg/kg orally daily from 17 to 37 days, at 39 days, vehicle 2.5±0.75): 0.9±0.25
- severity index (EAE, 0 to 5 scale) ([1]; 50 mg/kg orally daily from 17 to 37 days, at 101 days, vehicle 2.33±0.25): 0.63±0.25
- cytotoxicity at 5 µM [2]: 100%
- number of alloantigen-specific T cells in the spleen ([3]; administered intraperitoneally every day for 5 days): significantly decreased
- number of alloantigen-specific T cells in the spleen ([3]; administered orally every day for 5 days): significantly decreased
- proliferation of T cells that responded to the alloantigen in vivo ([3]; dose of 50 mg/kg): completely inhibited
